{"source": "ChEMBL document CHEMBL1142596", "about": "“Diterpenes from Leucas aspera inhibiting prostaglandin-induced contractions” (J Nat Prod, 2006)", "key": {"Ileum [1]": {"system": "Ileum", "test": "Inhibition of prostaglandin E1-induced contraction in Hartley guinea pig ileum at 126 umol by modified Magnus assay", "format": "functional, tissue-based", "conditions": "Cavia porcellus"}, "Ileum [2]": {"system": "Ileum", "test": "Inhibition of prostaglandin E2-induced contraction in Hartley guinea pig ileum at 76 umol by modified Magnus assay", "format": "functional, tissue-based", "conditions": "Cavia porcellus"}, "[3]": {"system": "Radical scavenging activity", "test": "Antioxidant activity assessed as DPPH-radical scavenging activity", "format": "functional"}, "Ileum [4]": {"system": "Ileum", "test": "Inhibition of prostaglandin E1-induced contraction in Hartley guinea pig ileum at 39 umol by modified Magnus assay", "format": "functional, tissue-based", "conditions": "Cavia porcellus"}, "Ileum [5]": {"system": "Ileum", "test": "Inhibition of prostaglandin E2-induced contraction in Hartley guinea pig ileum at 64 umol by modified Magnus assay", "format": "functional, tissue-based", "conditions": "Cavia porcellus"}, "Ileum [6]": {"system": "Ileum", "test": "Inhibition of prostaglandin E1-induced contraction in Hartley guinea pig ileum at 16 umol by modified Magnus assay", "format": "functional, tissue-based", "conditions": "Cavia porcellus"}, "Ileum [7]": {"system": "Ileum", "test": "Inhibition of prostaglandin E2-induced contraction in Hartley guinea pig ileum at 48 umol by modified Magnus assay", "format": "functional, tissue-based", "conditions": "Cavia porcellus"}}, "note": "Activity calls are given as the source filed them. The rule behind the calls is not given here."}
{"smiles": "C=CC(C)(O)CC(OC(C)=O)[C@]1(C)C2=C([C@H](OC(C)=O)C[C@@H]1C)[C@@](C)(COC(C)=O)C(=O)CC2", "note": "(stereo partly drawn)", "values": [{"measurement": "Activity", "setting": "Ileum [1]", "value": "Active"}, {"measurement": "Activity", "setting": "Ileum [2]", "value": "Active"}, {"measurement": "Activity", "setting": "[3]", "value": "inactive"}]}
{"smiles": "C=C[C@]1(C)C=C2C(=O)C[C@H]3C(C)(C)[C@@H](O[C@@H]4O[C@H](CO[C@@H]5O[C@H](CO)[C@@H](O)[C@H](O)[C@H]5O)[C@@H](O)[C@H](O)[C@H]4O[C@@H]4O[C@@H](C)[C@H](O)[C@@H](O)[C@H]4O)CC[C@]3(C)[C@H]2CC1", "values": [{"measurement": "Activity", "setting": "Ileum [4]", "value": "Active"}, {"measurement": "Activity", "setting": "Ileum [5]", "value": "Active"}, {"measurement": "Activity", "setting": "[3]", "value": "inactive"}]}
{"smiles": "C=CC(C)(O)CC(O)[C@]1(C)C2=C([C@H](OC(C)=O)C[C@@H]1C)[C@@](C)(COC(C)=O)C(=O)CC2", "note": "(stereo partly drawn)", "values": [{"measurement": "Activity", "setting": "[3]", "value": "inactive"}]}
{"smiles": "O=C(N[C@H](COC(=O)[C@H](Cc1ccccc1)NC(=O)c1ccccc1)Cc1ccccc1)c1ccccc1", "values": [{"measurement": "Activity", "setting": "[3]", "value": "inactive"}]}
{"smiles": "CC1(C)CC[C@]2(C(=O)O)CC[C@]3(C)C(=CC[C@@H]4[C@@]5(C)C[C@@H](O)[C@H](O)C(C)(C)[C@@H]5CC[C@]43C)[C@@H]2C1", "values": [{"measurement": "Activity", "setting": "Ileum [4]", "value": "Active"}, {"measurement": "Activity", "setting": "Ileum [5]", "value": "Active"}, {"measurement": "Activity", "setting": "[3]", "value": "inactive"}]}
{"smiles": "C=C[C@]1(C)C=C2C(=O)C[C@H]3C(C)(C)[C@@H](O[C@@H]4O[C@H](CO)[C@@H](O)[C@H](O)[C@H]4O[C@@H]4O[C@H](CO)[C@@H](O)[C@H](O)[C@H]4O)CC[C@]3(C)[C@H]2CC1", "values": [{"measurement": "Activity", "setting": "[3]", "value": "inactive"}, {"measurement": "Activity", "setting": "Ileum [6]", "value": "Active"}, {"measurement": "Activity", "setting": "Ileum [7]", "value": "Active"}]}
{"smiles": "C=C[C@]1(C)C=C2C(=O)C[C@H]3C(C)(C)[C@@H](O[C@@H]4O[C@H](CO)[C@@H](O)[C@H](O)[C@H]4O[C@@H]4O[C@H](CO[C@@H]5O[C@H](CO)[C@@H](O)[C@H](O)[C@H]5O)[C@@H](O)[C@H](O)[C@H]4O)CC[C@]3(C)[C@H]2CC1", "values": [{"measurement": "Activity", "setting": "Ileum [1]", "value": "Active"}, {"measurement": "Activity", "setting": "Ileum [2]", "value": "Active"}, {"measurement": "Activity", "setting": "[3]", "value": "inactive"}]}
{"smiles": "C[C@@H]1CC(=O)[C@H]2C(C)(C)[C@@H](O)CC[C@]2(C)[C@@]12CC[C@@]1(CCOC1O)O2", "note": "(mixture of isomers)", "values": [{"measurement": "Activity", "setting": "[3]", "value": "inactive"}]}
